Source: US20200178527A1, “Method for Promoting Growth and Preservation Quality of Agaricus Bisporus” (Nanjing University of Finance & Economics, priority 2018, published 2020)

Legend:
Agaricus bisporus [1] = experiment: Growth of Agaricus bisporus after spraying MeJA solution at mushroom bud stage; assay type: in vivo; conditions: for Diameter of Pileus / Diameter of Stipe / Thickness of Pileus / Weight: 30 mL/m^2 spray
Protocol: Experiment of promoting the growth and preservation quality of Agaricus bisporus (1) An ethanol-water solvent with an ethanol concentration (by volume fraction) of 2% was prepared, and then the methyl jasmonate (MeJA) was dissolved in the ethanol-water solvent to prepare MeJA solutions at concentrations respectively of 10, 50, 100, and 200 μmol/L.
(2) The aforementioned MeJA solutions were each used as an inducer and poured into an automatic spraying device, and were each uniformly sprayed onto the surface of Agaricus bisporus when it was grown to the mushroom bud stage, where the spraying dose of 30 mL/m^2 was used as the treatment group. At the same time, the treatments with water and a 2% ethanol solution were as a blank group and a control group, respectively. The subsequent culturing conditions were 17° C. and a humidity of 90%.
(3) Photographing and sampling are performed every 24 h during the treatment. After sampling, the weight (m) of a single mushroom was weighed and recorded, and the diameter of pileus (a), the diameter of stipe (b) and the thickness of pileus (c) were measured with a microcalliper and recorded to calculate the average values, and the results were shown in Table 1.

Agaricus bisporus [2] = experiment: Post-harvest storage (preservation quality) of Agaricus bisporus at 4° C., relative humidity 90-95%; assay type: in vivo
Protocol: Experiment of promoting the growth and preservation quality of Agaricus bisporus (1) An ethanol-water solvent with an ethanol concentration (by volume fraction) of 2% was prepared, and then the methyl jasmonate (MeJA) was dissolved in the ethanol-water solvent to prepare MeJA solutions at concentrations respectively of 10, 50, 100, and 200 μmol/L. (2) The aforementioned MeJA solutions were each used as an inducer and poured into an automatic spraying device, and were each uniformly sprayed onto the surface of Agaricus bisporus when it was grown to the mushroom bud stage, where the spraying dose of 30 mL/m^2 was used as the treatment group. At the same time, the treatments with water and a 2% ethanol solution were as a blank group and a control group, respectively. The subsequent culturing conditions were 17° C. and a humidity of 90%. The Agaricus bisporus was stored under conditions of 4° C. and a relative humidity of 90-95% after harvested, so as to observe its appearance and quality, and the results were as shown in FIG. 2.

[3] = 10 μM MeJA, day 1 after treatment
[4] = 10 μM MeJA, day 2 after treatment
[5] = 50 μM MeJA, day 1 after treatment
[6] = 50 μM MeJA, day 2 after treatment
[7] = 100 μM MeJA, day 1 after treatment
[8] = 100 μM MeJA, day 2 after treatment
[9] = 200 μM MeJA, day 1 after treatment
[10] = 200 μM MeJA, day 2 after treatment
[11] = methyl jasmonate solution of 10-200 μmol/l sprayed at mushroom bud stage

CC/C=C\CC1C(=O)CCC1CC(=O)OC (stereo not drawn) [MeJA, methyl jasmonate]
Diameter of Pileus (Agaricus bisporus [1]; [3]): 20.21 ± 0.67 mm
Diameter of Stipe (Agaricus bisporus [1]; [3]): 12.60 ± 0.91 mm
Thickness of Pileus (Agaricus bisporus [1]; [3]): 12.07 ± 0.48 mm
Weight (Agaricus bisporus [1]; [3]): 3.83 ± 0.01 g
Diameter of Pileus (Agaricus bisporus [1]; [4]): 37.04 ± 0.47 mm
Diameter of Stipe (Agaricus bisporus [1]; [4]): 18.17 ± 0.60 mm
Thickness of Pileus (Agaricus bisporus [1]; [4]): 21.49 ± 0.50 mm
Weight (Agaricus bisporus [1]; [4]): 16.27 ± 0.27 g
Diameter of Pileus (Agaricus bisporus [1]; [5]): 24.29 ± 0.75 mm
Diameter of Stipe (Agaricus bisporus [1]; [5]): 13.91 ± 0.66 mm
Thickness of Pileus (Agaricus bisporus [1]; [5]): 14.80 ± 0.49 mm
Weight (Agaricus bisporus [1]; [5]): 6.81 ± 0.09 g
Diameter of Pileus (Agaricus bisporus [1]; [6]): 39.01 ± 0.67 mm
Diameter of Stipe (Agaricus bisporus [1]; [6]): 18.76 ± 0.38 mm
Thickness of Pileus (Agaricus bisporus [1]; [6]): 22.29 ± 0.21 mm
Weight (Agaricus bisporus [1]; [6]): 20.34 ± 0.20 g
Diameter of Pileus (Agaricus bisporus [1]; [7]): 20.52 ± 0.33 mm
Diameter of Stipe (Agaricus bisporus [1]; [7]): 14.14 ± 0.35 mm
Thickness of Pileus (Agaricus bisporus [1]; [7]): 12.28 ± 0.32 mm
Weight (Agaricus bisporus [1]; [7]): 3.69 ± 0.06 g
Diameter of Pileus (Agaricus bisporus [1]; [8]): 31.97 ± 0.78 mm
Diameter of Stipe (Agaricus bisporus [1]; [8]): 16.30 ± 0.82 mm
Thickness of Pileus (Agaricus bisporus [1]; [8]): 18.73 ± 0.82 mm
Weight (Agaricus bisporus [1]; [8]): 11.18 ± 0.10 g
Diameter of Pileus (Agaricus bisporus [1]; [9]): 20.79 ± 0.57 mm
Diameter of Stipe (Agaricus bisporus [1]; [9]): 13.56 ± 0.83 mm
Thickness of Pileus (Agaricus bisporus [1]; [9]): 12.70 ± 0.19 mm
Weight (Agaricus bisporus [1]; [9]): 3.48 ± 0.14 g
Diameter of Pileus (Agaricus bisporus [1]; [10]): 30.71 ± 0.69 mm
Diameter of Stipe (Agaricus bisporus [1]; [10]): 17.94 ± 0.39 mm
Thickness of Pileus (Agaricus bisporus [1]; [10]): 17.5 ± 0.48 mm
Weight (Agaricus bisporus [1]; [10]): 10.10 ± 0.14 g
effect on growth of Agaricus bisporus (Agaricus bisporus [1]; 10-100 μmol/L, compared with blank group and ethanol group (FIG. 1, Table 1)): significant effect of promoting the growth
improvement of yield (Agaricus bisporus [1]; [11]): 20%-25%
preserving effect on Agaricus bisporus (Agaricus bisporus [2]; 10-200 μmol/L, compared with blank group and ethanol group, storage at 4° C., RH 90-95% (FIG. 2)): significant preserving effect
extension of post-harvest storage time (Agaricus bisporus [2]; [11]): 2 to 4 days
